How the values were obtained:
[1] = test system: patient with hemolytic PNH and infant; assay: Clinical tolerability and neonatal outcomes; assay type: in vivo, human
Method: (§1) Maternal and fetal outcomes were assessed throughout the third trimester and postpartum. Hematological response was evaluated using serial measurements of hemoglobin, hemolytic markers, and transfusion requirements. Complement levels/activity were measured using immunoturbidimetric assays for C3/C4 (Roche Diagnostics, Germany), and 50% hemolytic complement (CH50) by turbidimetric assay (Optilite, Binding Site, UK). Maternal clinical monitoring included evaluation for breakthrough hemolysis, thrombotic events, and other adverse events. Neonatal outcomes included gestational age at delivery, mode of delivery, birth weight, Apgar scores, and any complications identified during birth, hospitalization, or early follow‐up.

[2] = Pegcetacoplan concentration in umbilical cord blood plasma (placental transfer, LC-MS/MS); assay type: in vivo, human; settings: umbilical vein at delivery, LLOQ 10 µg/mL
Method: (§2) Maternal blood samples were obtained during routine collections pre‐ and postpartum. Cord blood samples were obtained from the umbilical vein at the time of delivery. Breast milk samples were collected on postpartum Days 1 and 2. Quantitative analysis of pegcetacoplan concentrations in maternal plasma, umbilical cord blood plasma, and breast milk was performed by an independent, accredited laboratory (Q^2 Solutions BioSciences, USA) using a validated liquid chromatography‐tandem mass spectrometry method incorporating pegcetacoplan‐d22 as internal standard, with lower limits of quantification of 10 and 20 µg/mL for plasma and breast milk, respectively.

[3] = Pegcetacoplan concentration in breast milk (lactational transfer, LC-MS/MS); assay type: in vivo, human
Method: as §2

[4] = test system: cynomolgus monkeys; settings: cynomolgus monkey, in vivo; cited from earlier work
Excerpt: In our case, pegcetacoplan was undetectable in all cord blood and breast milk samples, ...

[5] = test system: hemoglobin response; settings: plasma concentration; no reference given; cited from earlier work
Method: Pegcetacoplan was undetectable in all three cord blood samples (< 10 µg/mL), with no identifiable mass spectrometry peaks, indicating no measurable transplacental drug transfer. Pegcetacoplan was likewise not detected in breast milk, with concentrations below the lower limit of quantification (< 20 µg/mL, Table 2).

[6] = test system: patient with hemolytic PNH; assay: Hematological response (hemoglobin, hemolytic markers, transfusion requirements) in pregnant patient with PNH; assay type: in vivo, human; settings: for Hapto: normal 0.3–2.0; for ARC: normal 10–100; for Hb: normal 115–160; for Bili: normal ≤ 21; for LDH: normal ≤ 214
Method: Prophylactic‐dose dalteparin was prescribed. […] Informed consent was obtained for off‐label use in pregnancy, pharmacokinetic sampling, and case reporting. Institutional ethics board review exemption was granted for this single‐patient case report.
as §1

[7] = Pegcetacoplan concentration in maternal plasma (LC-MS/MS); assay type: in vivo, human; settings: LLOQ 10 µg/mL
Method: as §2

[8] = test system: complement C3, C4, CH50; assay: Complement levels/activity (C3/C4 immunoturbidimetric, CH50 turbidimetric) in patient; assay type: in vivo, human; settings: for CH50: normal 42–95; for C4: normal 0.1–0.4; for C3: normal 0.9–1.8
Method: as §1

[9] = 3 + 5 w gestation, on pegcetacoplan before switch to eculizumab
[10] = 28 + 1 w, date of pegcetacoplan reinitiation
[11] = 30 + 3 w, pegcetacoplan overlapping with eculizumab
[12] = 33 w, pegcetacoplan, dose escalation
[13] = 35 + 6 w, pegcetacoplan 1080 mg three times weekly
[14] = 37 + 2 w, date of delivery, pegcetacoplan
[15] = 37 w, pegcetacoplan 1080 mg three times weekly
[16] = after reinitiation of pegcetacoplan at 28 weeks' gestation
[17] = before pregnancy, pegcetacoplan 1080 mg subcutaneous twice-weekly
[18] = later the same day following delivery

Compound: CCO[C@H]1CCN(Cc2c(OC)cc(C)c3[nH]ccc23)[C@H](c2ccc(C(=O)O)cc2)C1 [iptacopan]
- Tolerability ([1]; before pregnancy, nausea unresponsive to antiemetics): discontinued due to persistent nausea

Compound: pegcetacoplan
- Concentration, cord blood plasma, Sample 1 [2]: < LLOQ
- Concentration, cord blood plasma, Sample 2 [2]: < LLOQ
- Concentration, cord blood plasma, Sample 3 [2]: < LLOQ
- Concentration, breast milk, Sample 1 ([3]; postpartum Day 1, LLOQ 20 µg/mL): < LLOQ
- Concentration, breast milk, Sample 2 ([3]; postpartum Day 2, LLOQ 20 µg/mL): < LLOQ
- Fetal loss [4]: increased fetal loss
- Maternal toxicity or teratogenicity [4]: no evidence
- Placental and breast milk transfer [4]: minimal
- EC99, effective concentration for maximum hemoglobin response [5]: 597 µg/mL
- Hapto [6, 9]: 1.85 g/L
- ARC [6, 9]: 8e+10 L⁻¹
- Hb [6, 9]: 109 g/L
- Bili [6, 9]: 7 µmol/L
- LDH [6, 9]: 153 U/L
- ARC [6, 10]: 1.73e+11 L⁻¹
- Hb [6, 10]: 87 g/L
- Bili [6, 10]: 12 µmol/L
- LDH [6, 10]: 208 U/L
- ARC [6, 11]: 1.72e+11 L⁻¹
- Hb [6, 11]: 93 g/L
- Bili [6, 11]: 9 µmol/L
- LDH [6, 11]: 205 U/L
- Hapto [6, 12]: 0.89 g/L
- ARC [6, 12]: 1.74e+11 L⁻¹
- Hb [6, 12]: 96 g/L
- Bili [6, 12]: 7 µmol/L
- LDH [6, 12]: 215 U/L
- Hapto [6, 13]: 0.84 g/L
- ARC [6, 13]: 1.78e+11 L⁻¹
- Hb [6, 13]: 103 g/L
- Bili [6, 13]: 4 µmol/L
- LDH [6, 13]: 208 U/L
- ARC [6, 14]: 1.2e+11 L⁻¹
- Hb [6, 14]: 102 g/L
- Bili [6, 14]: 3 µmol/L
- LDH [6, 14]: 210 U/L
- Hapto [6, 15]: 0.1 g/L
- ARC [6, 15]: 1.29e+11 L⁻¹
- Hb [6, 15]: 103 g/L
- Bili [6, 15]: 3 µmol/L
- LDH [6, 15]: 231 U/L
- ARC ([6]; PP 6 w, pegcetacoplan): 1.46e+11 L⁻¹
- Hb ([6]; PP 6 w, pegcetacoplan): 107 g/L
- Bili ([6]; PP 6 w, pegcetacoplan): 4 µmol/L
- LDH ([6]; PP 6 w, pegcetacoplan): 203 U/L
- ARC ([6]; PP 1 d, pegcetacoplan): 1.03e+11 L⁻¹
- Hb ([6]; PP 1 d, pegcetacoplan): 88 g/L
- Bili ([6]; PP 1 d, pegcetacoplan): 3 µmol/L
- LDH ([6]; PP 1 d, pegcetacoplan): 378 U/L
- ARC ([6]; PP 2 d, pegcetacoplan): 1.07e+11 L⁻¹
- Hb ([6]; PP 2 d, pegcetacoplan): 86 g/L
- Bili ([6]; PP 2 d, pegcetacoplan): 3 µmol/L
- LDH ([6]; PP 2 d, pegcetacoplan): 351 U/L
- ARC ([6]; PP 3 d, pegcetacoplan): 1.06e+11 L⁻¹
- Hb ([6]; PP 3 d, pegcetacoplan): 86 g/L
- Bili ([6]; PP 3 d, pegcetacoplan): 3 µmol/L
- LDH ([6]; PP 3 d, pegcetacoplan): 327 U/L
- Hapto ([6]; PP 10 d, pegcetacoplan): 1.34 g/L
- ARC ([6]; PP 10 d, pegcetacoplan): 9.7e+10 L⁻¹
- Hb ([6]; PP 10 d, pegcetacoplan): 89 g/L
- Bili ([6]; PP 10 d, pegcetacoplan): 4 µmol/L
- LDH ([6]; PP 10 d, pegcetacoplan): 280 U/L
- Hemoglobin (range) during the third trimester [6, 16]: 92 to 103 g/L
- Transfusions after resumption [6, 16]: no transfusions required
- Hemoglobin stabilization [6, 17]: approximately 110 g/L
- Transfusion status [6, 17]: achieved transfusion independence
- Infant complications ([1]; infant exposed in partial first and full third trimester, 10-month follow-up): no complications observed
- Concentration, maternal plasma, Sample 2 [7, 18]: 625 µg/mL
- Concentration, maternal plasma, Sample 3 [7, 18]: 587 µg/mL
- Concentration, maternal plasma, Sample 1 ([7]; morning prior to scheduled cesarean delivery, pegcetacoplan 1080 mg s.c. three times weekly): 719 µg/mL
- CH50 [8, 12]: 17 U/mL
- C4 [8, 13]: 0.43 g/L
- C3 [8, 13]: 4.9 g/L
- CH50 [8, 13]: 102 U/mL
- C4 [8, 14]: 0.37 g/L
- C3 [8, 14]: 4.7 g/L
- CH50 [8, 14]: 88 U/mL
- CH50 [8, 15]: 82 U/mL
- CH50 ([8]; PP 6 w, pegcetacoplan): 99 U/mL
- C4 ([8]; PP 1 d, pegcetacoplan): 0.34 g/L
- C3 ([8]; PP 1 d, pegcetacoplan): 4.33 g/L
- CH50 ([8]; PP 1 d, pegcetacoplan): 86.0 U/mL
- C4 ([8]; PP 2 d, pegcetacoplan): 0.35 g/L
- C3 ([8]; PP 2 d, pegcetacoplan): 4.5 g/L
- CH50 ([8]; PP 2 d, pegcetacoplan): > 103 U/mL
- C4 ([8]; PP 3 d, pegcetacoplan): 0.36 g/L
- C3 ([8]; PP 3 d, pegcetacoplan): 4.44 g/L
- CH50 ([8]; PP 3 d, pegcetacoplan): 97 U/mL
